Source: ChEMBL document CHEMBL5150076, “Discovery of Novel Orally Bioavailable Triazoles with Potent and Broad-Spectrum Antifungal Activity In Vitro and In Vivo” (J Med Chem, 2022)
In brackets after ≈: the same amount, converted by molar mass.

Tests used:
[1] = test system: Candida albicans; test: Antifungal activity against Candida albicans SC5314 incubated for 24 hrs by microbroth dilution method; format: functional
[2] = Cytotoxicity against HUVEC assessed as cell viability at 64 ug/ml incubated for 24 hrs by CCK-8 assay; format: toxicity, cell-based; settings: human, HUVEC cells, at 64 µg/mL, read-out: Activity
[3] = Cmax in Sprague-Dawley rat at 5 mg/kg, po by LC-MS analysis; format: ADME, organism-based; set-up: dose 5 mg/kg, route po; settings: in vivo
[4] = test system: Candida parapsilosis; test: Antifungal activity against Candida parapsilosis 22019; format: functional; settings: Lodderomyces parapsilosis
[5] = test system: Candida albicans; test: Antifungal activity against Candida albicans Y0109; format: functional
[6] = test system: Candida parapsilosis; test: Antifungal activity against Candida parapsilosis 90018; format: functional; settings: Lodderomyces parapsilosis
[7] = test system: Candida tropicalis; test: Antifungal activity against Candida tropicalis 112936; format: functional
[8] = Oral bioavailability in Sprague-Dawley rat at 5 mg/kg by LC-MS analysis; format: ADME, organism-based; settings: in vivo
[9] = test system: Candida albicans; test: Antifungal activity against Candida albicans 14#; format: functional
[10] = test system: [Candida] auris; test: Antifungal activity against Candida auris BS12372; format: functional; settings: Candidozyma auris
[11] = target: T1, Lanosterol 14-alpha demethylase (Candida albicans (strain SC5314 / ATCC MYA-2876) (Yeast), UniProt P10613); test: Inhibition of CYP51 in Candida albicans SC5314 assessed as sterol level at 0.0625 ug/ml measured after 12 hrs by GC-MS analysis (reference value: 25.23%); set-up: scale not given: the % may be the effect or the level left; settings: dose 0.0625 µg/ml
T1 sequence (P10613 whole entry): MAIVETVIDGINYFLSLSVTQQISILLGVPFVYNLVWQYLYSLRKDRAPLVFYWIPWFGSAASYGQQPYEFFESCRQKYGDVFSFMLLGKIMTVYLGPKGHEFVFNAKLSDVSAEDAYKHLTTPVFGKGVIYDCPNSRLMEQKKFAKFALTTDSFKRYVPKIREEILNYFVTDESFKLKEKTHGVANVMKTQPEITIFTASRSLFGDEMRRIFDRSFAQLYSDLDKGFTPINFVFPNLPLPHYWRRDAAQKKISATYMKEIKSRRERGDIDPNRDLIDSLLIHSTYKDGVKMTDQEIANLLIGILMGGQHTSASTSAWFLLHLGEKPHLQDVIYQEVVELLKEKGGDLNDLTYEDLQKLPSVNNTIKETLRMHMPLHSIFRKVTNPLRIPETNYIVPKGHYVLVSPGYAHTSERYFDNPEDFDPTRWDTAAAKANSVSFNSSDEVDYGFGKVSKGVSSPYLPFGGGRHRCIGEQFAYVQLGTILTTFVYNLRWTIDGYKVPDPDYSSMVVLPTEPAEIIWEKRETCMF

[12] = test system: Candida albicans; test: Antifungal activity against Candida albicans 25#; format: functional
[13] = test system: Aspergillus fumigatus; test: Antifungal activity against Aspergillus fumigatus 7544 infected in ICR mouse assessed as survival rate at 60 mg/kg, po qd infected with fungus for 2 hrs prior to compound addition for 7 days and measured for 20 days; format: functional; settings: time 20 day
[14] = test system: Cryptococcus neoformans; test: Antifungal activity against Cryptococcus neoformans H99 incubated for 72 hrs by microbroth dilution method; format: functional
[15] = test system: Candida albicans; test: Antifungal activity against Candida albicans 28#; format: functional
[16] = test system: Pichia kudriavzevii; test: Antifungal activity against Candida krusei 629; format: functional
[17] = test system: Candida parapsilosis; test: Antifungal activity against Candida parapsilosis 660; format: functional; settings: Lodderomyces parapsilosis
[18] = AUC(0 to infinity) in Sprague-Dawley rat at 5 mg/kg, po by LC-MS analysis; format: ADME, organism-based; set-up: time infinity, dose 5 mg/kg, route po; settings: in vivo
[19] = Tmax in Sprague-Dawley rat at 5 mg/kg, po by LC-MS analysis; format: ADME, organism-based; settings: in vivo
[20] = test system: Nannizzia gypsea; test: Antifungal activity against Microsporum gypseum; format: functional
[21] = test system: [Candida] auris; test: Antifungal activity against Candida auris 791; format: functional; settings: Candidozyma auris
[22] = target: T1, Lanosterol 14-alpha demethylase; test: Inhibition of CYP51 in Candida albicans SC5314 assessed as ergosterol level at 0.0625 ug/ml measured after 12 hrs by GC-MS analysis (reference value: 72.58%); set-up: scale not given: the % may be the effect or the level left; settings: dose 0.0625 µg/ml
[23] = test system: Candida albicans; test: Antifungal activity against Candida albicans 20#; format: functional
[24] = test system: Aspergillus fumigatus; test: Antifungal activity against Aspergillus fumigatus 7544 incubated for 48 hrs by microbroth dilution method; format: functional
[25] = in vitro; settings: human, Caco-2 cells; at 64 µg/mL
[26] = test system: Candida albicans; test: Antifungal activity against Candida albicans 305; format: functional
[27] = test system: Candida albicans; test: Antifungal activity against Candida albicans 12#; format: functional
[28] = test system: Cryptococcus neoformans; test: Antifungal activity against Cryptococcus neoformans 32605; format: functional
[29] = test system: Trichophyton rubrum; test: Antifungal activity against Trichophyton rubrum cmccftla; format: functional
[30] = test system: Nakaseomyces glabratus; test: Antifungal activity against Candida glabrata 537; format: functional
[31] = test system: Aspergillus fumigatus; test: Antifungal activity against Aspergillus fumigatus 7544 infected in ICR mouse assessed as survival rate at 20 mg/kg, po qd infected with fungus for 2 hrs prior to compound addition for 7 days and measured for 20 days; format: functional; settings: time 20 day
[32] = test system: Candida tropicalis; test: Antifungal activity against Candida tropicalis ATCC750; format: functional
[33] = test system: Pichia kudriavzevii; test: Antifungal activity against Candida krusei 467; format: functional
[34] = test system: Pichia kudriavzevii; test: Antifungal activity against Candida krusei 463; format: functional
[35] = test system: [Candida] auris; test: Antifungal activity against Candida auris D12; format: functional; settings: Candidozyma auris
[36] = test system: Nakaseomyces glabratus; test: Antifungal activity against Candida glabrata ATCC2001; format: functional
[37] = target: T1, Lanosterol 14-alpha demethylase; test: Inhibition of CYP51 in Candida albicans SC5314 assessed as lanosterol level at 0.0625 ug/ml measured after 12 hrs by GC-MS analysis (reference value: 2.18%); set-up: scale not given: the % may be the effect or the level left; settings: dose 0.0625 µg/ml
[38] = test system: Pichia kudriavzevii; test: Antifungal activity against Candida krusei 397; format: functional
[39] = Induction of hemolysis in rabbit RBC at 64 ug/ml incubated for 1 hr; format: toxicity, cell-based, Oryctolagus cuniculus, Erythrocyte; settings: red blood cells, at 64 µg/mL, read-out: Activity
[40] = test system: Candida parapsilosis; test: Antifungal activity against Candida parapsilosis 700; format: functional; settings: Lodderomyces parapsilosis
[41] = test system: Candida albicans; test: Antifungal activity against Candida albicans 162; format: functional
[42] = AUC(0 to infinity) in Sprague-Dawley rat at 2 mg/kg, iv by LC-MS analysis; format: ADME, organism-based; set-up: time infinity, dose 2 mg/kg, route iv; settings: in vivo
[43] = Half life in Sprague-Dawley rat at 2 mg/kg, iv by LC-MS analysis; format: ADME, organism-based; settings: in vivo
[44] = target: T1, Lanosterol 14-alpha demethylase; test: Inhibition of CYP51 in Candida albicans SC5314 assessed as eburicol level at 0.0625 ug/ml measured after 12 hrs by GC-MS analysis (reference value: 0.00%); set-up: scale not given: the % may be the effect or the level left; settings: dose 0.0625 µg/ml
[45] = Half life in Sprague-Dawley rat at 5 mg/kg, po by LC-MS analysis; format: ADME, organism-based; settings: in vivo

**Q.** What does the source list for `C[C@@H](c1ncncc1F)[C@](O)(Cn1cncn1)c1ccc(F)cc1F` [VORICONAZOLE]?
**A.** MIC [1]: 0.0313 µg/mL (≈ 0.0896 µM); viability at 24 h, 64 ug/ml [2]: 93.4%; Cmax [3]: 877 ng/mL; MIC [4]: 0.0313 µg/mL (≈ 0.0896 µM); MIC [5]: 0.0156 µg/mL (≈ 0.0447 µM); MIC [6]: ≤ 0.0313 µg/mL; MIC [7]: > 16 µg/mL; bioavailability [8]: 26%; MIC [9]: > 64 µg/mL; MIC [10]: 2 µg/mL (≈ 5.73 µM); Activity [11]: 5.84%; MIC [12]: > 64 µg/mL; Activity [13]: 100%; MIC [14]: 0.0313 µg/mL (≈ 0.0896 µM); MIC [15]: ≤ 0.0313 µg/mL; MIC [16]: 0.0625 µg/mL (≈ 0.179 µM); MIC [17]: ≤ 0.0313 µg/mL; AUC(0-inf) [18]: 2530 ng·h/mL; Tmax [19]: 53.4 min; MIC [20]: 0.25 µg/mL (≈ 0.716 µM); MIC [21]: 2 µg/mL (≈ 5.73 µM); Activity [22]: 1.63%; MIC [23]: ≤ 0.0313 µg/mL; MIC [24]: 0.25 µg/mL (≈ 0.716 µM); viability at 24 h, 64 ug/ml [25]: 103%; MIC [26]: > 16 µg/mL; MIC [27]: > 64 µg/mL; MIC [28]: 0.0156 µg/mL (≈ 0.0447 µM); MIC [29]: 0.0625 µg/mL (≈ 0.179 µM); MIC [30]: 0.125 µg/mL (≈ 0.358 µM); Activity [31]: 60%; MIC [32]: 8 µg/mL (≈ 22.9 µM); MIC [33]: 0.125 µg/mL (≈ 0.358 µM); MIC [34]: 0.0625 µg/mL (≈ 0.179 µM); MIC [35]: 1 µg/mL (≈ 2.86 µM); MIC [36]: 0.125 µg/mL (≈ 0.358 µM); Activity [37]: 5.38%; MIC [38]: 0.125 µg/mL (≈ 0.358 µM); hemolysis at 1 h, 64 ug/ml [39]: 1.07%; MIC [40]: 0.0313 µg/mL (≈ 0.0896 µM); MIC [41]: > 64 µg/mL; AUC(0-inf) [42]: 7200 ng·h/mL; half-life [43]: 234 min; Activity [44]: 87.15%; half-life [45]: 40.2 min
